Laboratory results: US10168342B2, “Lipid probes and uses thereof” (THE SCRIPPS RESEARCH INSTITUTE, priority 2015, dated 2019)

Key:
[1] = biological target: T1, NENF (Homo sapiens, UniProt Q9UMX5); experiment: In vitro gel-based competition of AEA-DA probe labeling of NENF; assay type: binding; settings: competitors 1-100 μM, NENF-transfected HEK293T lysates
T1 construct: Full-length cDNAs encoding for the each protein of interest were subcloned into pcDNA3.1 myc-His A; Myc (myc-His of pcDNA3.1 myc-His A); expressed in transfected cells; host or cells: HEK293T (lysates)
Description: Full-length cDNAs encoding for the each protein of interest were subcloned into pcDNA3.1 myc-His A (Invitrogen) or used directly for transfections if available in a eukaryotic expression vector. HEK293T cells were grown to ˜70% confluence under standard growth conditions before adding the appropriate cDNA [control cells (“mock”) received an equal amount of empty pcDNA3.1 myc-His A vector] and FuGENE 6 or X-tremeGENE HP (Roche) transfection reagent according to the manufacturer's instructions. Cells were incubated for 36-48 hours before labeling in situ or harvesting for in vitro experiments.
Cell lysates (1.0 mg/mL), the indicated lipid probe (2.5 or 5 μM) and, for recombinant NUCB1 competition experiments, purified hNUCB1 (250 nM) and CaCl2 (100 μM) were mixed on ice. […] The samples were then irradiated with UV light and subjected to previously described click chemistry conditions. As before, each reaction was quenched with 4×SDS loading buffer (17 μL), and proteins were resolved using SDS-PAGE (10% acrylamide gel) and analyzed by in-gel fluorescent scanning on a Hitachi FMBIO-II flatbed fluorescence scanner. NUCB1 competition was quantitatively assessed by measuring the fluorescent intensity of the corresponding gel band using ImageJ 1.48v and normalizing this value by a non-competed gel band to control for loading differences.
Metabolite data are shown as mean±SEM (n=3-5/group). Differences between two groups were determined using Student's t test (unpaired, two-tailed) and significance was denoted for P values<0.05.

[2] = biological target: AEA-DA lipid probe targets in A549 cells (Homo sapiens, UniProt Q86XL3); experiment: In situ competitive SILAC profiling with AEA-DA probe in A549 cells; settings: competitor 25 μM
[3] = biological target: AEA-DA lipid probe targets in A549 cells (Homo sapiens, UniProt P30519); experiment: as above; settings: competitor 25 μM
[4] = biological target: AEA-DA lipid probe targets in A549 cells (Homo sapiens, UniProt P45880); experiment: as above; settings: competitor 25 μM
[5] = biological target: AEA-DA lipid probe targets in A549 cells (Homo sapiens, UniProt Q53GQ0); experiment: as above; settings: competitor 25 μM
[6] = system: AEA-DA lipid probe targets in A549 cells; experiment: as above; settings: competitor 25 μM
[7] = biological target: AEA-DA lipid probe targets in A549 cells (Homo sapiens, UniProt Q14534); experiment: as above; settings: competitor 25 μM
[8] = biological target: AEA-DA lipid probe targets in A549 cells (Homo sapiens, UniProt P21796); experiment: as above; settings: competitor 25 μM
[9] = biological target: AEA-DA lipid probe targets in A549 cells (Homo sapiens, UniProt O95470); experiment: as above; settings: competitor 25 μM
[10] = biological target: AEA-DA lipid probe targets in A549 cells (Homo sapiens, UniProt P67812); experiment: as above; settings: competitor 25 μM
Sequence of AEA-DA lipid probe targets in A549 cells (Homo sapiens, UniProt P67812) (P67812 whole entry): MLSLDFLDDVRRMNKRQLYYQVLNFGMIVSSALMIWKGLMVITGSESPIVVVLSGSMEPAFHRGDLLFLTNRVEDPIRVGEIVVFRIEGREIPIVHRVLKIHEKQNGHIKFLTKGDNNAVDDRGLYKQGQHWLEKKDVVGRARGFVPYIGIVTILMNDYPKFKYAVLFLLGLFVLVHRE

Sequence of AEA-DA lipid probe targets in A549 cells (Homo sapiens, UniProt P30519) (P30519 whole entry): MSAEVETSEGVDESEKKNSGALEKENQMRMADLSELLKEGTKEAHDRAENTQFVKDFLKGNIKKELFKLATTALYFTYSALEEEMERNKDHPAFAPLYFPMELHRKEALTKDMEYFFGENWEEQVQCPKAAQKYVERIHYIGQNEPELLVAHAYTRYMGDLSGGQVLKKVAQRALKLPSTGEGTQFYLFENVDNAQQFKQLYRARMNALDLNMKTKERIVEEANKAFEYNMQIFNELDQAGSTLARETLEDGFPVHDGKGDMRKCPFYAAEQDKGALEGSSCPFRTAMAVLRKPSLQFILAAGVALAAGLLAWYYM
Sequence of AEA-DA lipid probe targets in A549 cells (Homo sapiens, UniProt Q53GQ0) (Q53GQ0 whole entry): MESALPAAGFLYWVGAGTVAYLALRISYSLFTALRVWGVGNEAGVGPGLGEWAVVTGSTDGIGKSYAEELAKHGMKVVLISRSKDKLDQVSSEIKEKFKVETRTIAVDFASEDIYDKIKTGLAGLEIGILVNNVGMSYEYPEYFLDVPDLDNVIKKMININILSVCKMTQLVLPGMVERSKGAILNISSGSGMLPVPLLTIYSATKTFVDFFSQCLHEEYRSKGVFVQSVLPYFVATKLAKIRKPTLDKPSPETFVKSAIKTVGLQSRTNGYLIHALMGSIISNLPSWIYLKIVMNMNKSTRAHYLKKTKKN
Sequence of AEA-DA lipid probe targets in A549 cells (Homo sapiens, UniProt Q86XL3) (Q86XL3 whole entry): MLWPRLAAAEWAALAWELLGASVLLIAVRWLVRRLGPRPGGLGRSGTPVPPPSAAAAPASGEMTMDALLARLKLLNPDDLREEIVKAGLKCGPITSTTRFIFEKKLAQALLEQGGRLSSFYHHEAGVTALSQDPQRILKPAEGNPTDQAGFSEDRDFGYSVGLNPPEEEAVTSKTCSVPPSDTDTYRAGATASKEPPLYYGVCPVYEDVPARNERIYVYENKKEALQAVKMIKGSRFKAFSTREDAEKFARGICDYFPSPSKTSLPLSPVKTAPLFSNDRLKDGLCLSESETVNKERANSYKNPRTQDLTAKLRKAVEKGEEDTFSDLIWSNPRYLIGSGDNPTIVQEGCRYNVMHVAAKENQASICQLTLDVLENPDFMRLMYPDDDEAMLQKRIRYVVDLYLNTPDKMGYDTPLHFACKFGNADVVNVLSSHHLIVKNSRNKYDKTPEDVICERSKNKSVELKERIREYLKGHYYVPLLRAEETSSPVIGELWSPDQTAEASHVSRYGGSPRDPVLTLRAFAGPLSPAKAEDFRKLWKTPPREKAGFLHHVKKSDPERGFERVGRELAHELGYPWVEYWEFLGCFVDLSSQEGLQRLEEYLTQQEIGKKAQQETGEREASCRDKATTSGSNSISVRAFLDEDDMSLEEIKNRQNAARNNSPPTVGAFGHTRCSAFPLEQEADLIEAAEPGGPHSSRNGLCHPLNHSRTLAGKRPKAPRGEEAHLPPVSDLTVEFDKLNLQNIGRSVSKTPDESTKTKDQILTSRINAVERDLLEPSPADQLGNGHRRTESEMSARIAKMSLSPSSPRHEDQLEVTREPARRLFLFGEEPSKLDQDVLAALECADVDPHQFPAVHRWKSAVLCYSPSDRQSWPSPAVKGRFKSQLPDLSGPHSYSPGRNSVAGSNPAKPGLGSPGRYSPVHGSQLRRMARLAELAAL
Sequence of AEA-DA lipid probe targets in A549 cells (Homo sapiens, UniProt P45880) (P45880 whole entry): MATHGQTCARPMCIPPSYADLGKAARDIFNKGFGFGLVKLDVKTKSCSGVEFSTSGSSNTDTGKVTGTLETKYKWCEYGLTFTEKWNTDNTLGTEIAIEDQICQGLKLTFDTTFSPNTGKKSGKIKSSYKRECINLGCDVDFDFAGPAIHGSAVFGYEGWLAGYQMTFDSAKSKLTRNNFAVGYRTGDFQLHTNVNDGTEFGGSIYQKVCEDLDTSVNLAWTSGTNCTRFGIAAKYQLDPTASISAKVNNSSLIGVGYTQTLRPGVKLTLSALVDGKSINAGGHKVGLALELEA
Sequence of AEA-DA lipid probe targets in A549 cells (Homo sapiens, UniProt O95470) (O95470 whole entry): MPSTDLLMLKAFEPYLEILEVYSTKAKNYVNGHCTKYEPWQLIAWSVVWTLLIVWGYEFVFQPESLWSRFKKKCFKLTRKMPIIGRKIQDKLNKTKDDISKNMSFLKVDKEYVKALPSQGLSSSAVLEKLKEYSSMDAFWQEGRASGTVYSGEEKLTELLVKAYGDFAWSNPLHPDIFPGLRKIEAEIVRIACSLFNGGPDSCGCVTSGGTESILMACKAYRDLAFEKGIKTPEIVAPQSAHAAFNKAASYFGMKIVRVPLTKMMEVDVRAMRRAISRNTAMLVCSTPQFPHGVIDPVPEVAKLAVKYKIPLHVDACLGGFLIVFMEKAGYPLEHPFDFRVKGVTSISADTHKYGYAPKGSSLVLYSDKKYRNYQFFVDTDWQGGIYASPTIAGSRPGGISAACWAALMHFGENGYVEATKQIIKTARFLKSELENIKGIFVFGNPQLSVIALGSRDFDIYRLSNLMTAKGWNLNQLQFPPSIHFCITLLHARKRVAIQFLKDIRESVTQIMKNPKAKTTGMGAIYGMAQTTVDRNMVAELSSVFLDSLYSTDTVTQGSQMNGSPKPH
Sequence of AEA-DA lipid probe targets in A549 cells (Homo sapiens, UniProt Q14534) (Q14534 whole entry): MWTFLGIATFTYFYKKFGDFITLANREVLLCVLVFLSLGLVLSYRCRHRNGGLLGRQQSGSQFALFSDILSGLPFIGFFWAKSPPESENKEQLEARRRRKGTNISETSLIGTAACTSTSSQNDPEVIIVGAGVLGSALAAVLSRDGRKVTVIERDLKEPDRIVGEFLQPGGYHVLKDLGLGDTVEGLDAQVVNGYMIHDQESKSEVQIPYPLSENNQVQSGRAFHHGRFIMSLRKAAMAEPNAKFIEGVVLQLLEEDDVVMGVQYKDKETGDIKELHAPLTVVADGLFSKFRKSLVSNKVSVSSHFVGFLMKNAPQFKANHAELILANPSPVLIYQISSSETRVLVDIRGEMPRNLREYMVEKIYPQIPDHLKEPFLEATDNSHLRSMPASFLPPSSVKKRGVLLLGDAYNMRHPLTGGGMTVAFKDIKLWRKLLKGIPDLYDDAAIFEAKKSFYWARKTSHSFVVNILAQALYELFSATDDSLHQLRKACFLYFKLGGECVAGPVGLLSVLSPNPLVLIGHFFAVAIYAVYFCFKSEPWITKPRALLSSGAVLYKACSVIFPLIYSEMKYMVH
Sequence of AEA-DA lipid probe targets in A549 cells (Homo sapiens, UniProt P21796) (P21796 whole entry): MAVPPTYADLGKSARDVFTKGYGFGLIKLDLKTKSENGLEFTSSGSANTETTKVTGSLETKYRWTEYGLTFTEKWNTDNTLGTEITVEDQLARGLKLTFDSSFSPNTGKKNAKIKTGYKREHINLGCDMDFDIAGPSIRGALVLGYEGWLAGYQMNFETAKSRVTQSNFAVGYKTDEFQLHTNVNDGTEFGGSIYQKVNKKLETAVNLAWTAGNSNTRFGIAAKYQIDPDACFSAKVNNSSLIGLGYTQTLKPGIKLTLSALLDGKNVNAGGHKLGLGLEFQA
T1 sequence (Q9UMX5 32-172, species assumed): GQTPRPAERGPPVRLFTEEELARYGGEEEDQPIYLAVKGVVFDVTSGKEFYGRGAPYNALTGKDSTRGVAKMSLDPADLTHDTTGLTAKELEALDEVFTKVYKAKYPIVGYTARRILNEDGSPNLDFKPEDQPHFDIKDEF

## CCCCC/C=C\C/C=C\C/C=C\C/C=C\CCCC(=O)NCCO [AEA, anandamide, reference compound]
[1]
  competition of AEA-DA probe labeling of recombinant NENF: competitively blocked

## O=C(/C=C/c1cccnc1)NCCCCC1CCN(C(=O)c2ccccc2)CC1 [FK-866, reference compound]
[2]
  SILAC ratio, ANKLE2 (Q86XL3): 0.6
[3]
  SILAC ratio, HMOX2 (P30519): 0.7
[4]
  SILAC ratio, VDAC2 (P45880): 0.9
[5]
  SILAC ratio, HSD17B12 (Q53GQ0): 0.8
[6]
  SILAC ratio, PGRMC2 (Q80UU9): 0.7
  SILAC ratio, PSAP (P07602): 0.7
  SILAC ratio, TOMM22 (Q9CPQ3): 0.6
  SILAC ratio, UGT1A7 (Q9HAW7): 1.5
[7]
  SILAC ratio, SQLE (Q14534): 0.7
[8]
  SILAC ratio, VDAC1 (P21796): 0.8
[9]
  SILAC ratio, SGPL1 (O95470): 0.8
[10]
  SILAC ratio, SEC11A (P67812): 0.6
